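Following 48 hours of exposure in 96-well plates, responses at five concentrations were used to interpolate endpoints linearly. GI50 marks 50% less growth.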 Activity calls are given as the source filed them. Cut-off read from the data, not from the text of the source: active = GI50 up to about 1.1 µM and inactive = higher.
Tests used:
Experiment in all cases: DTP human tumour cell line panel, 48 h
SK-MEL-5 = test system: SK-MEL-5
NCI-H23 = test system: NCI-H23
NCI-H460 = test system: NCI-H460
SF-539 = test system: SF-539
Malme-3M = test system: Malme-3M
CCRF-CEM = test system: CCRF-CEM
EKVX = test system: EKVX
ACHN = test system: ACHN
SR = test system: SR
CAKI-1 = test system: CAKI-1
HCT-15 = test system: HCT-15
NCI/ADR-RES = test system: NCI/ADR-RES
SF-295 = test system: SF-295
OVCAR-3 = test system: OVCAR-3
HT-29 = test system: HT-29
SNB-19 = test system: SNB-19
HL-60 = test system: HL-60
UO-31 = test system: UO-31
HOP-92 = test system: HOP-92
SK-MEL-28 = test system: SK-MEL-28

SMILES	GI50 (SK-MEL-5)	GI50 (NCI-H23)	GI50 (NCI-H460)	GI50 (SF-539)	GI50 (Malme-3M)	GI50 (CCRF-CEM)	GI50 (EKVX)	GI50 (ACHN)	GI50 (SR)	GI50 (CAKI-1)	GI50 (HCT-15)	GI50 (NCI/ADR-RES)	GI50 (SF-295)	GI50 (OVCAR-3)	GI50 (HT-29)	GI50 (SNB-19)	GI50 (HL-60)	GI50 (UO-31)	GI50 (HOP-92)	GI50 (SK-MEL-28)
COc1c2c3c4c(c(OC)c(=O)c5c(O)cc(OC)c(c6c(OC)cc(O)c(c1=O)c63)c54)C(C(C)O)C2C(C)O (stereo not given)	0.24 µM (active)	0.798 µM (active)	0.345 µM (active)	0.796 µM (active)	1.17 µM (inactive)	0.542 µM (active)	0.944 µM (active)	0.811 µM (active)	1.31 µM (inactive)	0.53 µM (active)	1.2 µM	0.923 µM (active)	0.562 µM (active)	0.871 µM (active)	1.16 µM (inactive)	0.83 µM (active)	0.392 µM (active)	0.39 µM (active)	0.421 µM (active)	0.953 µM (active)
Nc1nc2c(ncn2C2C=CC(COS(N)(=O)=O)C2)c(=O)[nH]1 (stereo not given)	> 100 µM (inactive)	> 100 µM (inactive)	> 100 µM (inactive)	> 100 µM (inactive)	> 100 µM (inactive)	> 100 µM (inactive)	> 100 µM (inactive)	> 100 µM (inactive)	> 100 µM (inactive)	> 100 µM (inactive)	> 100 µM	> 100 µM (inactive)	> 100 µM (inactive)	> 100 µM (inactive)	> 100 µM (inactive)	> 100 µM (inactive)	> 100 µM (inactive)	> 100 µM (inactive)	> 100 µM (inactive)	> 100 µM (inactive)
COc1cc2ccccc2oc1=O	> 100 µM (inactive)	94.2 µM (inactive)	45.5 µM (inactive)	> 100 µM (inactive)	99.1 µM (inactive)	41.9 µM (inactive)	51.1 µM (inactive)	63 µM (inactive)	> 100 µM (inactive)	99.3 µM (inactive)	> 100 µM	97.5 µM (inactive)	> 100 µM (inactive)	74.5 µM (inactive)	> 100 µM (inactive)	> 100 µM (inactive)	50.8 µM (inactive)	39 µM (inactive)	40 µM (inactive)	84.5 µM (inactive)
